Holding throughout (test): Glasshouse assay for herbicidal activity (pre- and post-emergence), percentage phytotoxicity
Type in all cases: in vivo

In one experiment the test system is Avena fatua (AVEFA). As to conditions: Avena fatua. A digest of the protocol: (§1)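 Visual phytotoxicity score, 0% = undamaged to 100% = total kill, read 20 days after treatment for PRE and 15 days for POST. Pots of standard soil; treatment at day 1 (PRE) or roughly day 12 (POST). Glasshouse: 16 h photoperiod, 65% RH, 24/18 or 20/16 °C by climate type.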
The test system of experiment [1] is Alopecurus myosuroides (ALOMY). As to conditions: Alopecurus myosuroides. In short, it runs like this:
as §1

The next experiment concerns Lolium perenne (LOLPE). As to conditions: Lolium perenne. In short, it runs like this: as §1
Experiment [2] concerns Echinochloa crus-galli (ECHCG). As to conditions: Echinochloa crus-galli. A digest of the protocol:
as §1

The mark [3] stands for this setting: post-emergence, 360 h, 250 g/ha, post-emergence, 15 DAA, visual assessment (100%=total damage, 0%=no damage), read-out: Post-emergence herbicidal activity (percentage phytotoxicity) AVEFA POST.
[4] abbreviates: pre-emergence, 480 h, 250 g/ha, pre-emergence, 20 DAA, visual assessment (100%=total damage, 0%=no damage), read-out: Pre-emergence herbicidal activity (percentage phytotoxicity) AVEFA PRE.
[5] abbreviates: post-emergence, 360 h, 250 g/ha, post-emergence, 15 DAA, visual assessment (100%=total damage, 0%=no damage), read-out: Post-emergence herbicidal activity (percentage phytotoxicity) ALOMY POST.
[6] abbreviates: pre-emergence, 480 h, 250 g/ha, pre-emergence, 20 DAA, visual assessment (100%=total damage, 0%=no damage), read-out: Pre-emergence herbicidal activity (percentage phytotoxicity) ALOMY PRE.
Setting [7] is: post-emergence, 360 h, 250 g/ha, post-emergence, 15 DAA, visual assessment (100%=total damage, 0%=no damage), read-out: Post-emergence herbicidal activity (percentage phytotoxicity) LOLPE POST.
The mark [8] stands for this setting: pre-emergence, 480 h, 250 g/ha, pre-emergence, 20 DAA, visual assessment (100%=total damage, 0%=no damage), read-out: Pre-emergence herbicidal activity (percentage phytotoxicity) LOLPE PRE.
Where [9] appears, read: post-emergence, 360 h, 250 g/ha, post-emergence, 15 DAA, visual assessment (100%=total damage, 0%=no damage), read-out: Post-emergence herbicidal activity (percentage phytotoxicity) ECHCG POST.
Setting [10] is: pre-emergence, 480 h, 250 g/ha, pre-emergence, 20 DAA, visual assessment (100%=total damage, 0%=no damage), read-out: Pre-emergence herbicidal activity (percentage phytotoxicity) ECHCG PRE.

Pest or weed control data for 7 compounds are collected here from patent US10206394B2, “Herbicidal compounds” (Syngenta Participations AG, priority 2014, dated 2019).

SMILES strings stand for the structures. Like-named read-outs stand apart in the source and are kept apart here.

As for `CCOC(=O)OC1=C(c2c(C)cc(-c3ncc(Cl)cn3)cc2C)C(=O)C(CC(=O)NC(C)(C)C)C1` (centres unmarked) [Compound P4], the pest or weed control at 250 g/ha in the experiment with Avena fatua (AVEFA) (post-emergence, 360 h, post-emergence, 250 g/ha, 15 DAA, visual score (100%=total damage; 0%=no damage), read-out: AVEFA POST herbicidal activity (percentage phytotoxicity)) was 100%; in the experiment with Avena fatua (AVEFA) (pre-emergence, 480 h, pre-emergence, 250 g/ha, 20 DAA, visual score (100%=total damage; 0%=no damage), read-out: AVEFA PRE herbicidal activity (percentage phytotoxicity)) it was 90%; in experiment [1] (post-emergence, 360 h, post-emergence, 250 g/ha, 15 DAA, visual score (100%=total damage; 0%=no damage), read-out: ALOMY POST herbicidal activity (percentage phytotoxicity)) it was 90%; in experiment [1] (pre-emergence, 480 h, pre-emergence, 250 g/ha, 20 DAA, visual score (100%=total damage; 0%=no damage), read-out: ALOMY PRE herbicidal activity (percentage phytotoxicity)), 90%; with Lolium perenne (LOLPE) (post-emergence, 360 h, post-emergence, 250 g/ha, 15 DAA, visual score (100%=total damage; 0%=no damage), read-out: LOLPE POST herbicidal activity (percentage phytotoxicity)) it was 100%; with Lolium perenne (LOLPE) (pre-emergence, 480 h, pre-emergence, 250 g/ha, 20 DAA, visual score (100%=total damage; 0%=no damage), read-out: LOLPE PRE herbicidal activity (percentage phytotoxicity)), 100%. Moreover, the pest or weed control at 250 g/ha in experiment [2] (post-emergence, 360 h, post-emergence, 250 g/ha, 15 DAA, visual score (100%=total damage; 0%=no damage), read-out: ECHCG POST herbicidal activity (percentage phytotoxicity)) was found to be 100%; in experiment [2] (pre-emergence, 480 h, pre-emergence, 250 g/ha, 20 DAA, visual score (100%=total damage; 0%=no damage), read-out: ECHCG PRE herbicidal activity (percentage phytotoxicity)), 100%.
With `Cc1cc(-c2ncc(F)cn2)cc(C)c1C1C(=O)CC(CC(=O)NC/C=C\Br)C1=O` (centres unmarked) [Compound B326], the pest or weed control at 250 g/ha was 100% in the experiment on Avena fatua (AVEFA) (post-emergence, 360 h, POST-emergence, rate 250 g/ha, visual score 15 DAA (100%=total damage, 0%=no damage), read-out: Post-emergence herbicidal activity (percentage phytotoxicity) AVEFA POST); 80% with Avena fatua (AVEFA) (pre-emergence, 480 h, PRE-emergence, rate 250 g/ha, visual score 20 DAA (100%=total damage, 0%=no damage), read-out: Pre-emergence herbicidal activity (percentage phytotoxicity) AVEFA PRE); 100% in experiment [1] (post-emergence, 360 h, POST-emergence, rate 250 g/ha, visual score 15 DAA (100%=total damage, 0%=no damage), read-out: Post-emergence herbicidal activity (percentage phytotoxicity) ALOMY POST); 100% in experiment [1] (pre-emergence, 480 h, PRE-emergence, rate 250 g/ha, visual score 20 DAA (100%=total damage, 0%=no damage), read-out: Pre-emergence herbicidal activity (percentage phytotoxicity) ALOMY PRE); 100% in the experiment on Lolium perenne (LOLPE) (post-emergence, 360 h, POST-emergence, rate 250 g/ha, visual score 15 DAA (100%=total damage, 0%=no damage), read-out: Post-emergence herbicidal activity (percentage phytotoxicity) LOLPE POST); 100% in the experiment on Lolium perenne (LOLPE) (pre-emergence, 480 h, PRE-emergence, rate 250 g/ha, visual score 20 DAA (100%=total damage, 0%=no damage), read-out: Pre-emergence herbicidal activity (percentage phytotoxicity) LOLPE PRE). The pest or weed control at 250 g/ha in experiment [2] (post-emergence, 360 h, POST-emergence, rate 250 g/ha, visual score 15 DAA (100%=total damage, 0%=no damage), read-out: Post-emergence herbicidal activity (percentage phytotoxicity) ECHCG POST) was determined as 100%; in experiment [2] (pre-emergence, 480 h, PRE-emergence, rate 250 g/ha, visual score 20 DAA (100%=total damage, 0%=no damage), read-out: Pre-emergence herbicidal activity (percentage phytotoxicity) ECHCG PRE), 100%.
In the case of `C=C(F)CNC(=O)CC1CC(=O)C(c2c(C)cc(C)cc2C)C1=O` (centres unmarked) [Compound B92], the pest or weed control at 250 g/ha in the experiment with Avena fatua (AVEFA) (setting [3]) was 80%; with Avena fatua (AVEFA) (setting [4]), 30%; in experiment [1] (setting [5]), 90%; in experiment [1] (setting [6]) it was 90%; in the experiment with Lolium perenne (LOLPE) (setting [7]), 90%; in the experiment on Lolium perenne (LOLPE) (setting [8]) it was 100%. The pest or weed control at 250 g/ha in experiment [2] (setting [9]) came to 80%; in experiment [2] (setting [10]), 90%.
Regarding `Cc1cc(-c2ncc(Cl)cn2)cc(C)c1C1C(=O)CC(CC(=O)NC/C=C/Cl)C1=O` (centres unmarked) [Compound B352], the pest or weed control at 250 g/ha came out at 90% in the experiment with Avena fatua (AVEFA) (post-emergence, 360 h, Rate 250 g/ha, post-emergence, visual assessment 15 DAA, 100%=total damage, 0%=no damage, read-out: Post-emergence herbicidal activity (percentage phytotoxicity) AVEFA POST); 90% in the experiment on Avena fatua (AVEFA) (pre-emergence, 480 h, Rate 250 g/ha, pre-emergence, visual assessment 20 DAA, 100%=total damage, 0%=no damage, read-out: Pre-emergence herbicidal activity (percentage phytotoxicity) AVEFA PRE); 100% in experiment [1] (post-emergence, 360 h, Rate 250 g/ha, post-emergence, visual assessment 15 DAA, 100%=total damage, 0%=no damage, read-out: Post-emergence herbicidal activity (percentage phytotoxicity) ALOMY POST); 100% in experiment [1] (pre-emergence, 480 h, Rate 250 g/ha, pre-emergence, visual assessment 20 DAA, 100%=total damage, 0%=no damage, read-out: Pre-emergence herbicidal activity (percentage phytotoxicity) ALOMY PRE); 100% with Lolium perenne (LOLPE) (post-emergence, 360 h, Rate 250 g/ha, post-emergence, visual assessment 15 DAA, 100%=total damage, 0%=no damage, read-out: Post-emergence herbicidal activity (percentage phytotoxicity) LOLPE POST); 90% with Lolium perenne (LOLPE) (pre-emergence, 480 h, Rate 250 g/ha, pre-emergence, visual assessment 20 DAA, 100%=total damage, 0%=no damage, read-out: Pre-emergence herbicidal activity (percentage phytotoxicity) LOLPE PRE). Further, the pest or weed control at 250 g/ha in experiment [2] (post-emergence, 360 h, Rate 250 g/ha, post-emergence, visual assessment 15 DAA, 100%=total damage, 0%=no damage, read-out: Post-emergence herbicidal activity (percentage phytotoxicity) ECHCG POST) came to 100%; in experiment [2] (pre-emergence, 480 h, Rate 250 g/ha, pre-emergence, visual assessment 20 DAA, 100%=total damage, 0%=no damage, read-out: Pre-emergence herbicidal activity (percentage phytotoxicity) ECHCG PRE), 100%.
On to `Cc1cc(C)c(C2C(=O)CC(CC(=O)NCc3ccc(C#N)cc3)C2=O)c(C)c1` (centres unmarked) [Compound B69], for which the pest or weed control at 250 g/ha was determined as 100% in the experiment with Avena fatua (AVEFA) (setting [3]); 80% in the experiment with Avena fatua (AVEFA) (setting [4]); 40% in experiment [1] (setting [5]); 50% in experiment [1] (setting [6]); 80% in the experiment on Lolium perenne (LOLPE) (setting [7]); 90% with Lolium perenne (LOLPE) (setting [8]). The pest or weed control at 250 g/ha is 80% in experiment [2] (setting [9]) and 90% in experiment [2] (setting [10]).
For the compound `Cc1cc(Br)cc(C)c1C1C(=O)CC(CC(=O)NCC2CC2)C1=O` (centres unmarked) [Compound B122], the pest or weed control at 250 g/ha turned out to be 100% with Avena fatua (AVEFA) (setting [3]); 80% in the experiment with Avena fatua (AVEFA) (setting [4]); 100% in experiment [1] (setting [5]); 80% in experiment [1] (setting [6]); 100% in the experiment on Lolium perenne (LOLPE) (setting [7]); 90% in the experiment with Lolium perenne (LOLPE) (setting [8]). Also, the values for the pest or weed control at 250 g/ha in experiment [2] (setting [9]) and in experiment [2] (setting [10]) were 100% and 70%, respectively.
On to `CC#Cc1cc(C)c(C2C(=O)CC(CC(=O)NCc3cnc(C)cn3)C2=O)c(C)c1` (centres unmarked) [Compound A144], for which the pest or weed control at 250 g/ha was found to be 100% with Avena fatua (AVEFA) (post-emergence, 360 h, Rate 250 g/ha, post-emergence, assessed visually 15 DAA, 100%=total damage, 0%=no damage, read-out: Post-emergence herbicidal activity (percentage phytotoxicity) AVEFA POST); 90% in the experiment on Avena fatua (AVEFA) (pre-emergence, 480 h, Rate 250 g/ha, pre-emergence, assessed visually 20 DAA, 100%=total damage, 0%=no damage, read-out: Pre-emergence herbicidal activity (percentage phytotoxicity) AVEFA PRE); 80% in experiment [1] (post-emergence, 360 h, Rate 250 g/ha, post-emergence, assessed visually 15 DAA, 100%=total damage, 0%=no damage, read-out: Post-emergence herbicidal activity (percentage phytotoxicity) ALOMY POST); 80% in experiment [1] (pre-emergence, 480 h, Rate 250 g/ha, pre-emergence, assessed visually 20 DAA, 100%=total damage, 0%=no damage, read-out: Pre-emergence herbicidal activity (percentage phytotoxicity) ALOMY PRE); 90% in the experiment with Lolium perenne (LOLPE) (post-emergence, 360 h, Rate 250 g/ha, post-emergence, assessed visually 15 DAA, 100%=total damage, 0%=no damage, read-out: Post-emergence herbicidal activity (percentage phytotoxicity) LOLPE POST); 90% in the experiment with Lolium perenne (LOLPE) (pre-emergence, 480 h, Rate 250 g/ha, pre-emergence, assessed visually 20 DAA, 100%=total damage, 0%=no damage, read-out: Pre-emergence herbicidal activity (percentage phytotoxicity) LOLPE PRE). The pest or weed control at 250 g/ha amounted to 100% in experiment [2] (post-emergence, 360 h, Rate 250 g/ha, post-emergence, assessed visually 15 DAA, 100%=total damage, 0%=no damage, read-out: Post-emergence herbicidal activity (percentage phytotoxicity) ECHCG POST) and 100% in experiment [2] (pre-emergence, 480 h, Rate 250 g/ha, pre-emergence, assessed visually 20 DAA, 100%=total damage, 0%=no damage, read-out: Pre-emergence herbicidal activity (percentage phytotoxicity) ECHCG PRE).
